The results in this text go back to ChEMBL document CHEMBL1155033, “Catalytic analysis of the validamycin glycosyltransferase (ValG) and enzymatic production of 4''-epi-validamycin A” (J Nat Prod, 2008).

The experiment concerns Rhizoctonia solani. The experiment is described as follows: Growth inhibition of Rhizoctonia solani assessed as inhibition of fungal mycelia expansion at 1 mg after 2 days by agar plug assay. It counts as functional, organism-based.

Each structure is given as a SMILES string. Calls of active or inactive are those of the source. The calls are words filed in the database; no cut-off is given here.

As for `OCC1=C[C@@H](N[C@H]2C[C@H](CO)[C@@H](O[C@H]3O[C@@H](CO)[C@H](O)[C@@H](O)[C@@H]3O)[C@H](O)[C@H]2O)[C@H](O)[C@@H](O)[C@@H]1O`, the result was Active.
